Test results reported in PubChem BioAssay (NCI).
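In this assay, cells in 96-well plates receive the compound at five concentrations for 48 hours. Endpoints are linearly interpolated between the surrounding concentrations. At the GI50, growth is halved. TGI: total growth inhibition.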

Legend:
Test in all cases: NCI-60 cell line screen, 48 h
ACHN renal = test system: ACHN renal
CCRF-CEM leukemia = test system: CCRF-CEM leukemia
DU-145 prostate = test system: DU-145 prostate
HL-60(TB) leukemia = test system: HL-60(TB) leukemia
HS 578T breast = test system: HS 578T breast
SW-620 colon = test system: SW-620 colon
786-0 renal = test system: 786-0 renal
A498 renal = test system: A498 renal
A549 NSCLC = test system: A549 NSCLC
BT-549 breast = test system: BT-549 breast
CAKI-1 renal = test system: CAKI-1 renal
COLO 205 colon = test system: COLO 205 colon
HCC-2998 colon = test system: HCC-2998 colon
HCT-116 colon = test system: HCT-116 colon
HCT-15 colon = test system: HCT-15 colon
HOP-62 NSCLC = test system: HOP-62 NSCLC
HOP-92 NSCLC = test system: HOP-92 NSCLC
HT29 colon = test system: HT29 colon
IGROV1 ovarian = test system: IGROV1 ovarian
K-562 leukemia = test system: K-562 leukemia
KM12 colon = test system: KM12 colon
LOX IMVI melanoma = test system: LOX IMVI melanoma
M14 melanoma = test system: M14 melanoma
MALME-3M melanoma = test system: MALME-3M melanoma
MCF7 breast = test system: MCF7 breast
MDA-MB-435 = test system: MDA-MB-435
MOLT-4 leukemia = test system: MOLT-4 leukemia
NCI-H226 lung = test system: NCI-H226 lung
NCI-H23 lung = test system: NCI-H23 lung
NCI-H460 lung = test system: NCI-H460 lung
NCI-H522 lung = test system: NCI-H522 lung
NCI/ADR-RES ovarian = test system: NCI/ADR-RES ovarian
OVCAR-3 ovarian = test system: OVCAR-3 ovarian
OVCAR-4 ovarian = test system: OVCAR-4 ovarian
OVCAR-5 ovarian = test system: OVCAR-5 ovarian
OVCAR-8 ovarian = test system: OVCAR-8 ovarian
PC-3 prostate = test system: PC-3 prostate
RPMI-8226 leukemia = test system: RPMI-8226 leukemia
RXF 393 renal = test system: RXF 393 renal
SF-268 CNS = test system: SF-268 CNS
SF-295 CNS = test system: SF-295 CNS
SF-539 CNS = test system: SF-539 CNS
SK-MEL-2 melanoma = test system: SK-MEL-2 melanoma
SK-MEL-28 melanoma = test system: SK-MEL-28 melanoma
SK-MEL-5 melanoma = test system: SK-MEL-5 melanoma
SK-OV-3 ovarian = test system: SK-OV-3 ovarian
SN12C renal = test system: SN12C renal
SNB-19 CNS = test system: SNB-19 CNS
SNB-75 CNS = test system: SNB-75 CNS
SR leukemia = test system: SR leukemia
TK-10 renal = test system: TK-10 renal
U251 CNS = test system: U251 CNS
UACC-257 melanoma = test system: UACC-257 melanoma
UACC-62 melanoma = test system: UACC-62 melanoma
UO-31 renal = test system: UO-31 renal

## C[C@H]1[C@H](C)CC[C@]2(C(=O)OCCOCCOCC[P+](c3ccccc3)(c3ccccc3)c3ccccc3)CC[C@]3(C)C(=CC[C@@H]4[C@@]5(C)CC[C@H](OC(=O)C(Cl)Cl)C(C)(C)[C@@H]5CC[C@]43C)[C@H]12
ACHN renal
  GI50: 0.54 µM
  TGI: 1.26 µM
CCRF-CEM leukemia
  GI50: 0.227 µM
  TGI: 1.61 µM
DU-145 prostate
  GI50: 0.301 µM
  TGI: 0.941 µM
HL-60(TB) leukemia
  GI50: 0.161 µM
  TGI: 0.804 µM
HS 578T breast
  GI50: 0.202 µM
  TGI: 3.2 µM
SW-620 colon
  GI50: 0.234 µM
  TGI: 0.955 µM

## O=c1[nH]c(=O)n(C2CC(O)C(CO)O2)cc1CO (configuration not stated)
786-0 renal
  GI50: 5.33 µM
  TGI: > 100 µM
A498 renal
  GI50: > 100 µM
  TGI: > 100 µM
A549 NSCLC
  GI50: > 100 µM
  TGI: > 100 µM
ACHN renal
  GI50: > 100 µM
  TGI: > 100 µM
BT-549 breast
  GI50: > 100 µM
  TGI: > 100 µM
CAKI-1 renal
  GI50: > 100 µM
  TGI: > 100 µM
CCRF-CEM leukemia
  GI50: > 100 µM
  TGI: > 100 µM
COLO 205 colon
  GI50: > 100 µM
  TGI: > 100 µM
DU-145 prostate
  GI50: > 100 µM
  TGI: > 100 µM
HCC-2998 colon
  GI50: > 100 µM
  TGI: > 100 µM
HCT-116 colon
  GI50: > 100 µM
  TGI: > 100 µM
HCT-15 colon
  GI50: > 100 µM
  TGI: > 100 µM
HL-60(TB) leukemia
  GI50: > 100 µM
  TGI: > 100 µM
HOP-62 NSCLC
  GI50: > 100 µM
  TGI: > 100 µM
HOP-92 NSCLC
  GI50: 43.3 µM
  TGI: > 100 µM
HS 578T breast
  GI50: > 100 µM
  TGI: > 100 µM
HT29 colon
  GI50: > 100 µM
  TGI: > 100 µM
IGROV1 ovarian
  GI50: > 100 µM
  TGI: > 100 µM
K-562 leukemia
  GI50: > 100 µM
  TGI: > 100 µM
KM12 colon
  GI50: > 100 µM
  TGI: > 100 µM
LOX IMVI melanoma
  GI50: > 100 µM
  TGI: > 100 µM
M14 melanoma
  GI50: > 100 µM
  TGI: > 100 µM
MALME-3M melanoma
  GI50: > 100 µM
  TGI: > 100 µM
MCF7 breast
  GI50: > 100 µM
  TGI: > 100 µM
MDA-MB-435
  GI50: > 100 µM
  TGI: > 100 µM
MOLT-4 leukemia
  GI50: > 100 µM
  TGI: > 100 µM
NCI-H226 lung
  GI50: > 100 µM
  TGI: > 100 µM
NCI-H23 lung
  GI50: 31 µM
  TGI: > 100 µM
NCI-H460 lung
  GI50: 37.1 µM
  TGI: > 100 µM
NCI-H522 lung
  GI50: > 100 µM
  TGI: > 100 µM
NCI/ADR-RES ovarian
  GI50: > 100 µM
  TGI: > 100 µM
OVCAR-3 ovarian
  GI50: > 100 µM
  TGI: > 100 µM
OVCAR-4 ovarian
  GI50: > 100 µM
  TGI: > 100 µM
OVCAR-5 ovarian
  GI50: > 100 µM
  TGI: > 100 µM
OVCAR-8 ovarian
  GI50: > 100 µM
  TGI: > 100 µM
PC-3 prostate
  GI50: > 100 µM
  TGI: > 100 µM
RPMI-8226 leukemia
  GI50: > 100 µM
  TGI: > 100 µM
RXF 393 renal
  GI50: > 100 µM
  TGI: > 100 µM
SF-268 CNS
  GI50: > 100 µM
  TGI: > 100 µM
SF-295 CNS
  GI50: > 100 µM
  TGI: > 100 µM
SF-539 CNS
  GI50: 21.1 µM
  TGI: > 100 µM
SK-MEL-2 melanoma
  GI50: > 100 µM
  TGI: > 100 µM
SK-MEL-28 melanoma
  GI50: > 100 µM
  TGI: > 100 µM
SK-MEL-5 melanoma
  GI50: > 100 µM
  TGI: > 100 µM
SK-OV-3 ovarian
  GI50: > 100 µM
  TGI: > 100 µM
SN12C renal
  GI50: 91.7 µM
  TGI: > 100 µM
SNB-19 CNS
  GI50: 2.9 µM
  TGI: > 100 µM
SNB-75 CNS
  GI50: > 100 µM
  TGI: > 100 µM
SR leukemia
  GI50: > 100 µM
  TGI: > 100 µM
SW-620 colon
  GI50: > 100 µM
  TGI: > 100 µM
TK-10 renal
  GI50: > 100 µM
  TGI: > 100 µM
U251 CNS
  GI50: 2.95 µM
  TGI: > 100 µM
UACC-257 melanoma
  GI50: > 100 µM
  TGI: > 100 µM
UACC-62 melanoma
  GI50: > 100 µM
  TGI: > 100 µM
UO-31 renal
  GI50: > 100 µM
  TGI: > 100 µM
